# Source: patent US20240246940A1, “HETEROARYL DERIVATIVE COMPOUND AND USE THEREOF” (VORONOI INC., priority 2021, published 2024)
# Columns and labels:
# [1] = tested on: SK-BR-3 cells (HER2 overexpressing cell line); assay: SK-BR-3 cell proliferation inhibitory activity (CellTiter-Glo, 120 hours); format: cell-based; conditions: Homo sapiens
# Experimental: (§1) To evaluate the cell proliferation inhibitory activity of the compound according to the present invention on HER2 and EGFR kinases, the following method was performed using HER2 overexpressing cell lines (SK-BR-3, BT-474, and N-87) and EGFR expressing cell line (HaCaT).
# (§2) McCOY'S 5A supplemented with 10% FBS was used for SK-BR-3 cells, RPMI-1640 medium supplemented with 20% FBS was used for BT-474 cancer cells, and RPMI-1640 medium supplemented with 10% FBS was used for N-87 cancer cells. DMEM supplemented with 10% FBS was used for HaCaT cells.
# (§3) For SK-BR-3 cells, 5000 cells were aliquoted into each well of a white clear bottom 96 well plate (Corning) 48 hours before treatment with the compounds of Examples. For BT-474 cells, 5000 cells were aliquoted into each well of a white clear bottom 96 well plate (Corning) 48 hours before treatment with the compounds of Examples. For N-87 cells, 5000 cells were aliquoted into each well of a white clear bottom 96 well plate (Corning) 24 hours before treatment with the compounds of Examples. For HaCaT cells, 3000 cells were aliquoted into each well of a white clear bottom 96 well plate (Corning) 24 hours before treatment with the compounds of Examples. For SK-BR-3 cells and BT-474 cells, the compounds of Examples were diluted in dimethyl sulfoxide (three-fold dilution, a total of 11 concentrations) and injected each in an amount of 1 μl to a final concentration of 0.2 nM to 10 μM. For N-87 cells, the compounds of Examples were diluted in dimethyl sulfoxide (five-fold dilution, a total of 11 concentrations) and injected each in an amount of 0.5 μl to a final concentration of […] to 5 μM. For HaCaT cells, the compounds of Examples were diluted in dimethyl sulfoxide (three-fold dilution, a total of 11 concentrations) and injected each in an amount of 0.5 μl to a final concentration of 0.8 nM to 45 μM. For the measurement of living cells, the cells were stored at room temperature for 10 minutes using CellTiter-Glo cell viability reagent (Promega) after a certain period of time (SK-BR-3: 120 hours, BT-474: 120 hours, N-87: 72 hours, and HaCaT: 72 hours) post treatment with the compounds of Examples, and the luminescence intensity thereof was measured using a reader (SynergyNeo, Biotek). Each test was repeated three times.
# (§4) The result values were calculated as a cell growth rate (%) compared to those of the control group. A graph was created using the GraphPad Prism version 5.0 program, and GI50 values were calculated.
# [2] = tested on: HaCaT cells (EGFR expressing cell line); assay: HaCaT cell proliferation inhibitory activity (CellTiter-Glo, 72 hours); format: cell-based; conditions: Homo sapiens
# Experimental: as §1, §2, §3, §4
Structure (SMILES),GI50 [1] [nM],GI50 [2] [nM]
"C=CC(=O)N1CC(Oc2cc3c(Nc4cc(-c5ccc(F)cc5F)ccc4OC)ncnc3cc2OC)C1 [Example 13, 1-(3-((4-((2′,4′-difluoro-4-methoxy-[1,1′-biphenyl]-3-yl)amino)-7-methoxy-quinazolin-6-yl)oxy)azetidin-1-yl)prop-2-en-1-one]",≤ 150,≤ 150
"C=CC(=O)N1CC(Oc2cc3c(Nc4cc(-c5ccc(F)c(C#N)c5)ccc4OC)ncnc3cc2OC)C1 [Example 14, 3′-((6-((1-acryloylazetidin-3-yl)oxy)-7-methoxy-quinazolin-4-yl)amino)-4-fluoro-4′-methoxy-[1,1′-biphenyl]-3-carbonitrile]",≤ 150,≤ 150
"C=CC(=O)N1CC(Oc2cc3c(Nc4cc(-c5ccc(Cl)cc5F)ccc4OC)ncnc3cc2OC)C1 [Example 15, 1-(3-((4-((4′-chloro-2′-fluoro-4-methoxy-[1,1′-biphenyl]-3-yl)amino)-7-methoxy-quinazolin-6-yl)oxy)azetidin-1-yl)prop-2-en-1-one]",≤ 150,≤ 150
"C=CC(=O)N1CC(Oc2cc3c(Nc4cc(-c5cccc(F)c5Cl)ccc4OC)ncnc3cc2OC)C1 [Example 18, 1-(3-((4-((2′-chloro-3′-fluoro-4-methoxy-[1,1′-biphenyl]-3-yl)amino)-7-methoxy-quinazolin-6-yl)oxy)azetidin-1-yl)prop-2-en-1-one]",≤ 150,≤ 150
"C=CC(=O)N1CC(Oc2cc3c(Nc4cc(-c5cccc(F)c5F)ccc4OC)ncnc3cc2OC)C1 [Example 19, 1-(3-((4-((2′,3′-difluoro-4-methoxy-[1,1′-biphenyl]-3-yl)amino)-7-methoxy-quinazolin-6-yl)oxy)azetidin-1-yl) prop-2-en-1-one]",≤ 150,≤ 150
"C=CC(=O)N1CC(Oc2cc3c(Nc4cc(-c5cccc(Cl)c5F)ccc4OC)ncnc3cc2OC)C1 [Example 20, 1-(3-((4-((3′-chloro-2′-fluoro-4-methoxy-[1,1′-biphenyl]-3-yl)amino)-7-methoxy-quinazolin-6-yl)oxy)azetidin-1-yl)prop-2-en-1-one]",≤ 150,≤ 150
"C=CC(=O)N1CC(Oc2cc3c(Nc4cc(-c5cccc(F)c5C)ccc4OC)ncnc3cc2OC)C1 [Example 23, 1-(3-((4-((3′-fluoro-4-methoxy-2′-methyl-[1,1′-biphenyl]-3-yl)amino)-7-methoxy-quinazolin-6-yl)oxy)azetidin-1-yl)prop-2-en-1-one]",150 to 1000,≤ 150
"C=CC(=O)N1CC(Oc2cc3c(Nc4cc(-c5ccc(F)cc5C)ccc4OC)ncnc3cc2OC)C1 [Example 25, 1-(3-((4-((4'-fluoro-4-methoxy-2′-methyl-[1,1′-biphenyl]-3-yl)amino)-7-methoxy-quinazolin-6-yl)oxy)azetidin-1-yl)prop-2-en-1-one]",≤ 150,≤ 150
"C=CC(=O)N1CC(Oc2cc3c(Nc4cc(-c5ccc(C#N)cc5)ccc4OC)ncnc3cc2OC)C1 [Example 26, 3′-((6-((1-acryloylazetidin-3-yl)oxy)-7-methoxy-quinazolin-4-yl)amino)-4′-methoxy-[1,1′-biphenyl]-4-carbonitrile]",≤ 150,≤ 150
"C=CC(=O)N1CC(Oc2cc3c(Nc4cc(-c5cnc(Cl)c(F)c5)ccc4OC)ncnc3cc2OC)C1 [Example 27, 1-(3-((4-((5-(6-chloro-5-fluoropyridin-3-yl)-2-methoxyphenyl)amino)-7-methoxy-quinazolin-6-yl)oxy)azetidin-1-yl)prop-2-en-1-one]",150 to 1000,150 to 1000
"C=CC(=O)N1CC(Oc2cc3c(Nc4cc(-c5ccc(Cl)c(F)c5)ccc4OC)ncnc3cc2OC)C1 [Example 28, 1-(3-((4-((4′-chloro-3′-fluoro-4-methoxy-[1,1′-biphenyl]-3-yl)amino)-7-methoxy-quinazolin-6-yl)oxy)azetidin-1-yl)prop-2-en-1-one]",150 to 1000,150 to 1000
